Values quoted from earlier work, collected in patent US12201667B2, “Formulations for treating cramps and spasms” (LYTONE ENTERPRISE, INC., priority 2020, dated 2025).

Conditions: background statement

Question: With `C=C[C@H]1C[N@@]2CC[C@H]1C[C@H]2[C@H](O)c1ccnc2ccc(OC)cc12` [quinine, Quinine] as the compound, how does the “reduction of cramp frequency” value read?
Answer: The value was “about a quarter”.
